Test results: US11613544B2, “Substituted imidazo[1,5-a]pyrazines for modulation of IRE1” (THE REGENTS OF THE UNIVERSITY OF CALIFORNIA, priority 2012, dated 2023)
Entries after “also recorded” stand apart in the source; their conditions may differ.

Columns and labels:
[1] = system: INS-1 cells; assay: Terminal UPR endpoints and apoptosis in cells under ER stress; type: cell-based, rat
Source text: Using rat insulinoma (INS-1) cells that have a well-developed ER and secrete insulin, the duration and magnitude of ER stress that triggers apoptosis were quantified. Two variables-concentration of ER stress inducer (e.g. Thapsigargin-Tg) and time of exposure to the agent—are directly linked to the percentage of cells entering apoptosis (FIG. 28, A and B). Such regimes can be defined for other ER stress inducers such as the glycosylation inhibitor, tunicamycin (Tm) (FIG. 28,C). Increasing ER stress causes progressive increases in endogenous IRE1α phosphorylation, increases in XBP1 mRNA splicing (FIG. 28, E), depletion through endonucleolytic decay of the ER-localized mRNA, Ins1, which encodes proinsulin (FIG. 28, F), and induction of the pro-apoptotic transcription factor, CHOP (FIG. 28, G).
KIRAs break high-order oligomerization of IRE1α kinase domains, attenuate RNAse activity, and reduce entry of cells into the Terminal UPR.
A model of KIRA6-mediated cytoprotection is shown (FIG. 30, J); it posits that the type II kinase inhibitor, KIRA6, reduces kinase/RNAse homo-oligomerization on the cytosolic face of IRE1α, which consequently reduces RNase hyperactivity under ER stress, preventing pro-apoptotic ER-localized mRNA decay and granting cells extended reprieve from programmed cell death.

[2] = system: endogenous IRE1α
[3] = system: retinal photoreceptors; assay: Intravitreal injection in rat models of retinal degeneration (tunicamycin; P23H rhodopsin); type: in vivo
Experimental: Based on known rat vitreous volumes, 2 μl was injected intravitreally into each eye. Tm ([…] final concentration) plus/minus KIRA6 (10 μM final concentration) was injected into SD rats at P21 with an equivalent amount of DMSO as a vehicle control. Retinas were collected at 48 and 72 hrs after injections in Trizol (Invitrogen) for qPCR analysis. Eyes were examined by optical coherence tomography (OCT) 7 days post injection and subsequently collected for morphological analysis. […]
Mice were anaesthetized with 1.5-3% isoflurane, eyes were dilated with 2.5% phenylephrine hydrochloride and 1% tropicamide, and corneas were kept moist with regular application of 2.5% methylcellulose. Eyes were examined using a Micron III retinal imaging system (Phoenix Research Labs). Spectral domain OCT images were acquired with a Micron Image Guided OCT System (Phoenix Research Labs) by averaging 10 to 50 scans.
Outer nuclear layers (ONL) were quantified as previously described (Lewin, A. S. et al., Nature medicine 4, 967-971 (1998)). Briefly, rats were euthanized by CO2 inhalation and their eyes were immediately enucleated and immersed in 2% paraformaldehyde and 2.5% glutaraldehyde in phosphate buffered saline. […] ONL thickness was measured at 54 locations around the retina using Bioquant image analysis (Bioquant; R&M Biometrics).

[4] = target: Abl (Homo sapiens, UniProt P00519); assay: Kinase panel counter-screen; type: biochemical; conditions: tested against 12 kinases of the panel
[5] = target: Src (Homo sapiens, UniProt P12931); assay: Kinase panel counter-screen; type: biochemical; conditions: tested against 12 kinases of the panel
[6] = system: pancreatic islets from C57BL/6 mice; assay: Pancreatic islets treated with ER stress inducer (Tm); type: cell-based, mouse
Experimental: FIG. 30. KIRA6 inhibits IRE1α autophosphorylation, breaks oligomers, reduces RNase activity, and protects cells from entry into apoptosis. (A) Structure of KIRA6. (B) RNase activities of IRE1α* under varying [KIRA6]; half-maximum effective concentration (EC50) values were determined by fitting normalized fluorescence intensities (mean±s.d., n=3). (C) Inhibition of IRE1α* kinase activity in vitro by KIRA6; IC50 values were determined by fitting percent phosphorylation. […] (E) Immunoblots of IRE1α* (WT) incubated with DMSO or KIRA6 (200 μM) followed by treatment with the crosslinker DSS (250 μM); quantification is on the right. (F) Agarose gel of XBP1 cDNA amplicons from INS-1 cells pre-treated with indicated concentrations of KIRA6 for 1 h, followed by 0.5 μg/ml Tm for 8 h. […] (H) KIRAs reduce entry of INS1-1 cells into apoptosis. (I) Immunofluorescence of islets from 10 wk old C57BL/6 mice treated with 0.5 μg/mL Tm plus/minus 0.5 μM KIRA6 for 16 hr. Co-stained for DAPI, insulin, and TUNEL; Quantification of TUNEL positive β-cells (white arrows) normalized to DAPI-positive cells is shown. […] (K) Model of how KIRA6 prevents the terminal UPR by inhibiting IRE1α. […]

[7] = target: T1, IRE1α* (WT) (Homo sapiens, UniProt O75460); assay: In vitro cleavage of pre-miR-17 by IRE1α*; type: biochemical
T1 construct: 6-His-tag (N); made in house; host or cells: SF9 insect cells (Bac-to-Bac baculovirus)
Source text: FIG. 31. […] Sequence legend (FIG. 31B): SEQ ID NOs:11-15 (in order top to bottom); (FIG. 31C): SEQ ID NO:16.
Described herein is the characterization of four select miRs that decay in vivo upon IRE1α hyperactivation. These are miR-17, miR-34a, miR-96, and miR-125b. WT-IRE1α directly cleaved pre-miR-17 in vitro at sites distinct from those cleaved by DICER, as mapped by primer extension. The scission sites of pre-miR-17 are identical to those of XBP1 mRNA—(G/C)—and diverge at the flanking regions. Thus, by reducing levels of pre-miRs, IRE1α antagonizes DICER action to reduce cellular levels of the corresponding mature miRs. Intriguingly, IRE1α* (I642G), which can be activated by 1NM-PP1 to cleave XBP1 mRNA in vitro, can also cleave pre-miR-17 under 1NM-PP1. An RNAse mutant, IRE1α* (N906A), is compromised for cleavage of pre-miR-17 (FIG. 31, A-C). […] As IRE1α homo-oligomerizes in the ER membrane in proportion to the concentration of unfolded proteins in the ER lumen, it progressively trans-autophosphorylates. Furthermore, salt bridges between phospho-amino acid groups and other residues reinforce higher-order homo-oligomerization of kinase/RNAse domains, as was shown using yeast IRE1. Thus, as IRE1α protein clusters into higher-order oligomers, it acquires increasing activity towards its RNA substrates. […]

[8] = system: mouse embryonic fibroblasts (MEFs); assay: Cytoprotection in mouse embryonic fibroblasts; type: cell-based
[9] = target: T2, IRE1α* (Homo sapiens, UniProt O75460); conditions: in vitro
[10] = target: T2, IRE1α*; assay: IRE1α* DSS cross-linking to determine oligomer to monomer ratio; conditions: saturating compound (200 μM), DSS 250 μM
Experimental: The reaction was quenched by addition of 50 mM Tris-HCl (pH 7.5). The samples were then boiled, resolved on SDS-PAGE, and immunoblotted for IRE1α with an anti-IRE1α antibody, (visualization and quantification with a LI-COR Odyssey scanner).

[11] = target: T2, IRE1α*; assay: IRE1α* autophosphorylation kinase assay ([γ-32P]ATP, autoradiography); conditions: in vitro
Experimental: Inhibitors (initial concentration=80 μM, 2-fold serial dilutions) were incubated with IRE1α in cleavage buffer (20 mM Hepes at pH 7.5, 0.05% Triton X100, 50 mM KOAC, 1 mM Mg(OAC)2, 1 mM DTT) for 20 min, followed by incubation with 10 μCi [γ-^32P]ATP (3000 Ci/mmol, Perkin Elmer) at RT for 30 min. Samples were then separated by SDS-PAGE, and autoradiographed. The auto-phosphorylation level were quantified by setting the band intensity of IRE1α* without compound treatment as 1 and the background as 0.

T2 sequence (O75460 with tags, fused parts or gaps): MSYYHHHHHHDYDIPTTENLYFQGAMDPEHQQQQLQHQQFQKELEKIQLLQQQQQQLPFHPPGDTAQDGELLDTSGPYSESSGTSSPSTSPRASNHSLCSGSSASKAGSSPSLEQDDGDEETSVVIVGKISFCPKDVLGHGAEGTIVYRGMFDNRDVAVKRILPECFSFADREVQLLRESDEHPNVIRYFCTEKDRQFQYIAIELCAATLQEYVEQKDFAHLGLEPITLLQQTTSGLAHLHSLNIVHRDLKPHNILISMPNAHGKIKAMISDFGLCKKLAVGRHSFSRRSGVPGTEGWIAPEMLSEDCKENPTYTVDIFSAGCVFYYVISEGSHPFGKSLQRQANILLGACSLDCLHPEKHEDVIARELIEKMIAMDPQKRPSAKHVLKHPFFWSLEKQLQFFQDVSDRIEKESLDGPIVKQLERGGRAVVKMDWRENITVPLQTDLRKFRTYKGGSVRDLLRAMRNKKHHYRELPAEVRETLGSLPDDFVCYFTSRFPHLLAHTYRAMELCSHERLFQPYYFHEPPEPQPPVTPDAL
T1 sequence (O75460 with tags, fused parts or gaps): as above
Sequence of Src (P12931 whole entry, species assumed): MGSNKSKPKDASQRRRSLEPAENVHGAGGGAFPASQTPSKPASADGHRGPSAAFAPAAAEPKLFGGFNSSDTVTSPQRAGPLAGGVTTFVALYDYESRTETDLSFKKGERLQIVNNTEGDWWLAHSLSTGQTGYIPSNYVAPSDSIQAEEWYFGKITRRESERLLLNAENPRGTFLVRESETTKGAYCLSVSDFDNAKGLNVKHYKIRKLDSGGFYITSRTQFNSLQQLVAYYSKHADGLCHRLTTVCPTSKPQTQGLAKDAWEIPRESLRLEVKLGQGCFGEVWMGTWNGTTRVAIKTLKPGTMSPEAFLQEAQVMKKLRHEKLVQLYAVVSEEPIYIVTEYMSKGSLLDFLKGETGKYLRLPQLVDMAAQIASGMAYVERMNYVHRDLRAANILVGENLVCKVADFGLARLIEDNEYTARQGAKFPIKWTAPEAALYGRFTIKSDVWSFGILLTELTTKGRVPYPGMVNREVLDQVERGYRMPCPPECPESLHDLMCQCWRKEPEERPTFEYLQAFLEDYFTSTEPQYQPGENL
Sequence of Abl (P00519 whole entry, species assumed): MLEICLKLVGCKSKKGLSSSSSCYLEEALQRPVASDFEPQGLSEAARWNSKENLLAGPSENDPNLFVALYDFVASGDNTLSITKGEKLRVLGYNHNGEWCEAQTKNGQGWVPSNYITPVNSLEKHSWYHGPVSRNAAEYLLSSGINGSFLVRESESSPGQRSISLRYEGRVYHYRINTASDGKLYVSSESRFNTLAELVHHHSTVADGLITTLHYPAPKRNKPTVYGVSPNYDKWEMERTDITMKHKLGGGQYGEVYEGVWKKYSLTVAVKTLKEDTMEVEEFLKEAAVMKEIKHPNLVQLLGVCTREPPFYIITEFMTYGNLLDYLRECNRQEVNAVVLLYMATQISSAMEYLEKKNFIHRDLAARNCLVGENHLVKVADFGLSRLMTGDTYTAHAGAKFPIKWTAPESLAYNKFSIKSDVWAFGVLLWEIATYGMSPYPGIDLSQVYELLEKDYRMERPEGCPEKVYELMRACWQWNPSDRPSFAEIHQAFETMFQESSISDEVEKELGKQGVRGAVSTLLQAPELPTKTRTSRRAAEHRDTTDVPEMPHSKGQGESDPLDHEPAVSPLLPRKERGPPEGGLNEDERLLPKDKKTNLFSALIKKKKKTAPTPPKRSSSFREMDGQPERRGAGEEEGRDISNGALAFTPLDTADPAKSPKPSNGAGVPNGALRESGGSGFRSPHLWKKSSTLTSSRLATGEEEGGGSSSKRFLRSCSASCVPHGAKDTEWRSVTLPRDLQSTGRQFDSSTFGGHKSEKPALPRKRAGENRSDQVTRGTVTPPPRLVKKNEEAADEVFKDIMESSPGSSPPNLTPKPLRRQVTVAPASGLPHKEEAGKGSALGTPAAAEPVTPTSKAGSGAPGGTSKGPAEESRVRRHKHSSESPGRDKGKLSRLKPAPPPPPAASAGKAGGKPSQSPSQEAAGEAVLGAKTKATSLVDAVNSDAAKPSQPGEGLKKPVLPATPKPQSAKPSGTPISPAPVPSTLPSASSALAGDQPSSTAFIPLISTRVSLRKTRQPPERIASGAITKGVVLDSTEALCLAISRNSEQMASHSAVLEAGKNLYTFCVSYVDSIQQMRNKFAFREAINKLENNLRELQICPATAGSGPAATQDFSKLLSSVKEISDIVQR

CC(C)(C)c1nc(-c2ccc(NC(=O)Nc3cccc(C(F)(F)F)c3)c3ccccc23)c2c(N)nccn12 [KIRA6, 1-(4-(8-amino-3-tert-butylimidazo[1,5-a]pyrazin-1-yl)naphthalen-1-yl)-3-(3-(trifluoromethyl)phenyl)urea]
ER-localized endonucleolytic decay of Ins1 mRNA ([1]; ER stress): inhibits ER-localized endonucleolytic decay of Ins1 mRNA at lower doses of the drug than needed to inhibit XBP1 mRNA splicing | caspase 2 accumulation and cleavage ([1]; FIG. 31F): reduces caspase 2 accumulation and cleavage | mature miR-17 levels ([1]; in vivo (cells), FIG. 31E): rescues mature miR-17 levels | terminal UPR endpoints / entry into apoptosis ([1]; pre-treatment before ER stress inducers): all these terminal UPR endpoints are curtailed | endogenous IRE1α-mediated XBP1 mRNA splicing ([2]; INS-1, provoked by Tm): inhibits endogenous IRE1α-mediated XBP1 mRNA splicing | endogenous IRE1α auto-phosphorylation ([2]; in vivo (cells), FIG. 30D): inhibits endogenous IRE1α auto-phosphorylation in a dose-dependent manner | outer nuclear layer (ONL) thickness vs DMSO ([3]; P23H-1 rats at P30, intravitreal 10 μM): higher thickness | photoreceptor loss / viability and function ([3]; intravitreal, rat models of retinal degeneration caused by ER stress): protects viability and preserves function of retinal photoreceptors; also recorded: prevents photoreceptor loss | off-target kinase inhibition [4]: off-target inhibition observed | off-target kinase inhibition [5]: off-target inhibition observed | TXNIP protein accumulation ([6]; C57BL/6 islets exposed to ER stress inducers): prevents TXNIP protein accumulation | cytoprotection of pancreatic islets ([6]; islets treated with Tm): cytoprotective effects | cleavage of pre-miR-17 by IRE1α* [7]: dose-dependently inhibits IRE1α* (WT) cleavage of pre-miR-17; also recorded: prevents cleavage of pre-miR-17 by IRE1α* in vitro | cytoprotective effects ([8]; Ire1α−/− MEFs): absent | cytoprotective effects ([8]; WT and Xbp1−/− MEFs): still demonstrable | modulation of IRE1α* RNase activity (XBP1 RNA cleavage) [9]: inhibits IRE1α* RNase and kinase activities with similar IC50s; also recorded: dose-dependently reduces kinase autophosphorylation and XBP1 splicing activity | IRE1α* oligomer/monomer ratio (oligomerization state) [10]: stabilizes the monomeric state; also recorded: reduces concentration-dependent oligomerization | inhibition of IRE1α* autophosphorylation [11]: dose-dependently reduces kinase autophosphorylation
